Results: ChEMBL document CHEMBL3885861, “Open TG-GATES”

Species on record: Rattus norvegicus
Test: Open TG-GATES - Regimen: Single
Type: toxicity, organism-based, Sprague-Dawley
Parameters: regimen Single, gender Male, age 6 weeks
Settings: in vivo, ip, 0.01 mg/kg, route intraperitoneal injection, dose 10 ug/Kg, dose level High; for APTT / Bas / Eos / Fbg / Hb / Ht / Lym / MCH / MCHC / MCV / Mono / Neu / PT / Plat / RBC / Ret / WBC: tissue Blood; for KIDNEY_L / KIDNEY_R / KIDNEY_TOTAL: tissue Kidney; for LIVER: tissue Liver; for A/G / ALP / ALT / AST / BUN / CRE / Ca / Cl / DBIL / GLC / IP / K / LDH / Na / PL / RALB / TBIL / TC / TG / TP / gamma-GTP: tissue Plasma

H-KGDRLS-OH [TNF-ALPHA]
TERMINAL_BW (3 h): 199.5 g | APTT (3 h): 15.7 s | Bas (3 h): 0.2% | Eos (3 h): 0.4% | Fbg (3 h): 279.2 mg/dL | Hb (3 h): 13.2 g/dL | Ht (3 h): 40.1% | Lym (3 h): 75% | MCH (3 h): 21.5 pg | MCHC (3 h): 32.8% | MCV (3 h): 65.3 fL | Mono (3 h): 4.4% | Neu (3 h): 18.8% | PT (3 h): 15.4 s | Plat (3 h): 115.5 x10_4/uL | RBC (3 h): 615.2 x10_4/ul | Ret (3 h): 9.2% | WBC (3 h): 82.2 x10_2/uL | KIDNEY_L (3 h): 0.9 g | KIDNEY_R (3 h): 0.9 g | KIDNEY_TOTAL (3 h): 1.7 g | LIVER (3 h): 8.8 g | A/G (3 h): 0.9 | ALP (3 h): 1307.2 IU/L | ALT (3 h): 43.6 IU/L | AST (3 h): 79.2 IU/L | BUN (3 h): 10.4 mg/dL | CRE (3 h): 0.2 mg/dL | Ca (3 h): 10.7 mg/dL | Cl (3 h): 105.8 meq/L | DBIL (3 h): 0.01 mg/dL | GLC (3 h): 167 mg/dL | IP (3 h): 9.8 mg/dL | K (3 h): 4 meq/L | LDH (3 h): 71 IU/L | Na (3 h): 142.4 meq/L | PL (3 h): 141.2 mg/dL | RALB (3 h): 2.4 g/dL | TBIL (3 h): 0.062 mg/dL | TC (3 h): 77.8 mg/dL | TG (3 h): 50.4 mg/dL | TP (3 h): 5.2 g/dL | gamma-GTP (3 h): 1.2 IU/L | TERMINAL_BW (6 h): 194.4 g | APTT (6 h): 18.1 s | Bas (6 h): 0% | Eos (6 h): 0.2% | Fbg (6 h): 349.4 mg/dL | Hb (6 h): 13.2 g/dL | Ht (6 h): 40.3% | Lym (6 h): 62.4% | MCH (6 h): 21 pg | MCHC (6 h): 32.9% | MCV (6 h): 63.8 fL | Mono (6 h): 2.6% | Neu (6 h): 34.2% | PT (6 h): 15 s | Plat (6 h): 106.9 x10_4/uL | RBC (6 h): 632.2 x10_4/ul | Ret (6 h): 7.9% | WBC (6 h): 58.5 x10_2/uL | KIDNEY_L (6 h): 0.9 g | KIDNEY_R (6 h): 0.9 g | KIDNEY_TOTAL (6 h): 1.8 g | LIVER (6 h): 8.5 g | A/G (6 h): 0.8 | ALP (6 h): 1422.6 IU/L | ALT (6 h): 37.6 IU/L | AST (6 h): 73 IU/L | BUN (6 h): 8.6 mg/dL | CRE (6 h): 0.2 mg/dL | Ca (6 h): 10.8 mg/dL | Cl (6 h): 105.4 meq/L | DBIL (6 h): 0.008 mg/dL | GLC (6 h): 170.8 mg/dL | IP (6 h): 9.8 mg/dL | K (6 h): 3.8 meq/L | LDH (6 h): 67.2 IU/L | Na (6 h): 143.2 meq/L | PL (6 h): 162.2 mg/dL | RALB (6 h): 2.5 g/dL | TBIL (6 h): 0.06 mg/dL | TC (6 h): 91.8 mg/dL | TG (6 h): 40.2 mg/dL | TP (6 h): 5.4 g/dL | gamma-GTP (6 h): 1.4 IU/L | TERMINAL_BW (9 h): 194.6 g | APTT (9 h): 19.4 s | Bas (9 h): 0% | Eos (9 h): 0.6% | Fbg (9 h): 371 mg/dL | Hb (9 h): 13.4 g/dL | Ht (9 h): 40.6% | Lym (9 h): 69.8% | MCH (9 h): 21.4 pg | MCHC (9 h): 32.9% | MCV (9 h): 64.8 fL | Mono (9 h): 1.8% | Neu (9 h): 26.8% | PT (9 h): 15.3 s | Plat (9 h): 105.5 x10_4/uL | RBC (9 h): 627.6 x10_4/ul | Ret (9 h): 8.3% | WBC (9 h): 66.7 x10_2/uL | KIDNEY_L (9 h): 0.9 g | KIDNEY_R (9 h): 0.9 g | KIDNEY_TOTAL (9 h): 1.7 g | LIVER (9 h): 7.9 g | A/G (9 h): 0.8 | ALP (9 h): 1174.4 IU/L | ALT (9 h): 32.6 IU/L | AST (9 h): 62.8 IU/L | BUN (9 h): 7.2 mg/dL | CRE (9 h): 0.2 mg/dL | Ca (9 h): 10.8 mg/dL | Cl (9 h): 104.4 meq/L | DBIL (9 h): 0.004 mg/dL | GLC (9 h): 167.2 mg/dL | IP (9 h): 10.2 mg/dL | K (9 h): 3.9 meq/L | LDH (9 h): 55.2 IU/L | Na (9 h): 141.6 meq/L | PL (9 h): 159.2 mg/dL | RALB (9 h): 2.5 g/dL | TBIL (9 h): 0.064 mg/dL | TC (9 h): 96.6 mg/dL | TG (9 h): 22.2 mg/dL | TP (9 h): 5.5 g/dL | gamma-GTP (9 h): 1.4 IU/L | TERMINAL_BW (24 h): 211.6 g | APTT (24 h): 15.6 s | Bas (24 h): 0.2% | Eos (24 h): 0.8% | Fbg (24 h): 323.4 mg/dL | Hb (24 h): 13.1 g/dL | Ht (24 h): 40.2% | Lym (24 h): 80.4% | MCH (24 h): 21.5 pg | MCHC (24 h): 32.6% | MCV (24 h): 65.8 fL | Mono (24 h): 3% | Neu (24 h): 15% | PT (24 h): 15.5 s | Plat (24 h): 116.4 x10_4/uL | RBC (24 h): 610.2 x10_4/ul | Ret (24 h): 8.5% | WBC (24 h): 77.3 x10_2/uL | KIDNEY_L (24 h): 1 g | KIDNEY_R (24 h): 0.9 g | KIDNEY_TOTAL (24 h): 1.9 g | LIVER (24 h): 9.8 g | A/G (24 h): 0.8 | ALP (24 h): 1565.6 IU/L | ALT (24 h): 47.8 IU/L | AST (24 h): 69.6 IU/L | BUN (24 h): 15.4 mg/dL | CRE (24 h): 0.2 mg/dL | Ca (24 h): 11.1 mg/dL | Cl (24 h): 106.6 meq/L | DBIL (24 h): 0.012 mg/dL | GLC (24 h): 190 mg/dL | IP (24 h): 8.9 mg/dL | K (24 h): 4.4 meq/L | LDH (24 h): 93.6 IU/L | Na (24 h): 142.2 meq/L | PL (24 h): 156 mg/dL | RALB (24 h): 2.6 g/dL | TBIL (24 h): 0.042 mg/dL | TC (24 h): 83.6 mg/dL | TG (24 h): 76.2 mg/dL | TP (24 h): 5.7 g/dL | gamma-GTP (24 h): 1 IU/L
